Reference: the SangsterLogP compilation

In order of rising logP:
1. CN1Cc2c(C(=O)OCCF)ncn2-c2ccc(F)cc2C1=O  0.93
2. Oc1ccccc1OC(c1ccccc1)C1CNCCO1 (stereo not given)  1.92
3. COC(=O)C1C(c2ccc(I)cc2)CC2CCC1N2C (stereo not given)  2.13
4. CCN1CCCC1CNC(=O)c1cc(Br)cc(OC)c1OC (stereo in doubt)  2.37
5. CNCC(O)CCN1c2ccccc2N(c2ccccc2)S1(=O)=O (stereo not given)  2.55
6. CCN1CCC[C@H]1CNC(=O)c1cc(I)cc(OC)c1OC  2.73
7. CCCn1c(=O)c2[nH]c(C3CCCC3)nc2n(CCCF)c1=O  2.83
8. CCC(C)NC(=O)c1cc2ccccc2c(-c2ccccc2Cl)n1 (stereo not given)  3.25
9. Cn1c2c(c3ccccc31)C[C@@]1(O)[C@@H]3Cc4ccc(O)c5c4[C@@]1(CCN3CC1CC1)[C@H]2O5  4.28
10. COc1cc2c(cc1OC)CN(CCc1ccc(NC(=O)c3cccc4c(=O)c5cccc(OC)c5[nH]c34)cc1)CC2  4.82
